{
  "source": "patent US7517529B2",
  "about": "“Treatment of type I diabetes” (Biotempt B.V., priority 2003, dated 2009)",
  "key": {"NFκB [1]": {"system": "NFκB", "test": "EMSA of nuclear extracts, basal and LPS-induced NFκB translocation in RAW 264.7 mouse macrophages", "format": "cell-based", "conditions": "30 minutes; for LPS-induced translocation of NFκB: LPS in combination with peptide (1 microgr/ml; 1 mg/ml); for Basal levels of NFκB in the nucleus: peptide without LPS", "protocol": "RAW 264.7 mouse macrophages were cultured in DMEM, containing 10% or 2% FBS, penicillin, streptomycin and glutamine, at 37° C., 5% CO2. Cells were seeded in a 12-wells plate (3×10^6 cells/ml) in a total volume of 1 ml for two hours and then stimulated with LPS (E. coli 026:B6; Difco Laboratories, Detroit, Mich., USA) and/or gene-regulatory peptide (1 microgr/ml). After 30 minutes of incubation, plates were centrifuged and cells were collected for nuclear extracts. Nuclear extracts and EMSA were prepared according to Schreiber et al. Cells were collected in a tube and centrifuged for five minutes at 2000 rpm (rounds per minute) at 4° C. (Universal 30 RF, Hettich Zentrifuges). The pellet was washed with ice-cold Tris buffered saline (TBS pH 7.4) and resuspended in 400 μl of a hypotonic buffer A (10 mM HEPES pH 7.9, 10 mM KCl, 0.1 mM EDTA, 0.1 mM EGTA, 1 mM DTT, 0.5 mM PMSF and protease inhibitor cocktail (Complete™ Mini, Roche) and left on ice for 15 minutes. Twenty-five microliters 10% NP-40 was added and the sample was centrifuged (two minutes, 4000 rpm, 4° C.). The supernatant (cytoplasmic fraction) was collected and stored at −70° C. The pellet, which contains the nuclei, was washed with 50 μl buffer A and resuspended in 50 μl buffer C (20 mM HEPES pH 7.9, 400 mM NaCl, 1 mM EDTA, 1 mM EGTA, 1 mM DTT, 0.5 mM PMSF and protease inhibitor cocktail and 10% glycerol). The samples were left to shake at 4° C. for at least 60 minutes. Finally the samples were centrifuged and the supernatant (nucleic fraction) was stored at −70° C.\nBradford reagent (Sigma) was used to determine the final protein concentration in the extracts. For electrophoretic mobility shift assays an oligonucleotide representing NFκB-binding sequence (5′-AGCTCAGAGGGGGACTTTCCGAGAG-3′ (SEQ ID NO:28)) was synthesized. Hundred pico mol sense and antisense oligo were annealed and labeled with […] using T4 polynucleotide kinase according to the manufacturer's instructions (Promega, Madison, Wis.). Nuclear extract (5 to 7.5 μg) was incubated for 30 minutes with 75000 cpm probe in binding reaction mixture (20 microliters) containing 0.5 μg poly dI-dC (Amersham Pharmacia Biotech) and binding buffer BSB (25 mM MgCl2, 5 mM CaCl2, 5 mM DTT and 20% Ficoll) at room temperature. The DNA-protein complex was resolved from free oligonucleotide by electrophoresis in a 4 to 6% polyacrylamide gel (150 V, two to four hours). The gel was then dried and exposed to x-ray film. The transcription factor NFκB participates in the transcriptional regulation of a variety of genes. Nuclear protein extracts were prepared from either LPS (1 mg/ml), peptide (1 mg/ml) or LPS in combination with peptide-treated and untreated RAW264.7 cells. In order to determine whether the peptides modulate the translocation of NFκB into the nucleus, on these extracts EMSA was performed. Peptides are able to modulate the basal as well as LPS-induced levels of NFκB. In this experiment peptides that show the inhibition of LPS-induced translocation of NFκB are: […] (SEQ ID NO:21), […] (SEQ ID NO:22), LQG, LQGV (SEQ ID NO:1), […] (SEQ ID NO:23), VLPALP (SEQ ID NO:4), VVC, MTR and circular […] (SEQ ID NO: 17). Peptides that in this experiment promote LPS-induced translocation of NFκB are: VLPALPQ (SEQ ID NO:13), GVLPALP (SEQ ID NO:16) and MTRV (SEQ ID NO:20). Basal levels of NFκB in the nucleus was decreased by […] (SEQ ID NO:21), […] (SEQ ID NO:22), LQG and LQGV (SEQ ID NO:1) while basal levels of NFκB in the nucleus was increased by […] (SEQ ID NO:23), VLPALPQ (SEQ ID NO:13), GVLPALP (SEQ ID NO:16), VVC, MTRV (SEQ ID NO:20), MTR and […]."}, "[2]": {"system": "production of NO by a cell", "test": "Production of NO by a cell", "format": "cell-based"}, "[3]": {"system": "relapsing-remitting multiple sclerosis", "conditions": "treated group, trial of 251 patients; cited from earlier work"}, "NFκB [4]": {"system": "NFκB", "test": "Other experiments on translocation of NFκB into nucleus (data not shown)", "format": "cell-based"}},
  "note": "Ends that are not written are not given here.",
  "data": [
    {"substance": "VLPALPQ", "values": [
      {"measurement": "LPS-induced translocation of NFκB", "setting": "NFκB [1]", "result": "promote"},
      {"measurement": "Basal levels of NFκB in the nucleus", "setting": "NFκB [1]", "result": "increased"}
    ]},
    {"substance": "VVC", "values": [
      {"measurement": "LPS-induced translocation of NFκB", "setting": "NFκB [1]", "result": "inhibition"},
      {"measurement": "Basal levels of NFκB in the nucleus", "setting": "NFκB [1]", "result": "increased"}
    ]},
    {"substance": "LQG", "values": [
      {"measurement": "production of NO by a cell", "setting": "[2]", "result": "capable of reducing production of NO by a cell"},
      {"measurement": "LPS-induced translocation of NFκB", "setting": "NFκB [1]", "result": "inhibition"},
      {"measurement": "Basal levels of NFκB in the nucleus", "setting": "NFκB [1]", "result": "decreased"}
    ]},
    {"substance": "Glatiramer acetate", "values": [
      {"measurement": "annual relapse rate reduced by", "setting": "[3]", "result": 25, "unit": "%"}
    ]},
    {"substance": "GVLPALPQ", "values": [
      {"measurement": "LPS-induced translocation of NFκB", "setting": "NFκB [1]", "result": "inhibition"},
      {"measurement": "Basal levels of NFκB in the nucleus", "setting": "NFκB [1]", "result": "increased"}
    ]},
    {"substance": "LQGVLPALPQ", "values": [
      {"measurement": "production of NO by a cell", "setting": "[2]", "result": "capable of reducing production of NO by a cell"},
      {"measurement": "LPS-induced translocation of NFκB", "setting": "NFκB [1]", "result": "inhibition"},
      {"measurement": "Basal levels of NFκB in the nucleus", "setting": "NFκB [1]", "result": "decreased"}
    ]},
    {"substance": "LQGV", "values": [
      {"measurement": "production of NO by a cell", "setting": "[2]", "result": "capable of reducing production of NO by a cell"},
      {"measurement": "LPS-induced translocation of NFκB", "setting": "NFκB [1]", "result": "inhibition"},
      {"measurement": "Basal levels of NFκB in the nucleus", "setting": "NFκB [1]", "result": "decreased"}
    ]},
    {"substance": "QVVC", "values": [
      {"measurement": "modulation of translocation of NFκB into nucleus", "setting": "NFκB [4]", "result": "modulation of translocation of NFκB into nucleus"}
    ]},
    {"substance": "GVLPALP", "values": [
      {"measurement": "LPS-induced translocation of NFκB", "setting": "NFκB [1]", "result": "promote"},
      {"measurement": "Basal levels of NFκB in the nucleus", "setting": "NFκB [1]", "result": "increased"}
    ]},
    {"substance": "LQGVLPALPQVVC", "values": [
      {"measurement": "Basal levels of NFκB in the nucleus", "setting": "NFκB [1]", "result": "increased"}
    ]},
    {"substance": "circular LQGVLPALPQVVC (also: circular/cyclised, mode not given here)", "values": [
      {"measurement": "LPS-induced translocation of NFκB", "setting": "NFκB [1]", "result": "inhibition"}
    ]},
    {"substance": "MTRV", "values": [
      {"measurement": "LPS-induced translocation of NFκB", "setting": "NFκB [1]", "result": "promote"},
      {"measurement": "Basal levels of NFκB in the nucleus", "setting": "NFκB [1]", "result": "increased"}
    ]},
    {"substance": "VLPALPQVVC", "values": [
      {"measurement": "production of NO by a cell", "setting": "[2]", "result": "capable of reducing production of NO by a cell"},
      {"measurement": "LPS-induced translocation of NFκB", "setting": "NFκB [1]", "result": "inhibition"},
      {"measurement": "Basal levels of NFκB in the nucleus", "setting": "NFκB [1]", "result": "decreased"}
    ]},
    {"substance": "MTR", "values": [
      {"measurement": "LPS-induced translocation of NFκB", "setting": "NFκB [1]", "result": "inhibition"},
      {"measurement": "Basal levels of NFκB in the nucleus", "setting": "NFκB [1]", "result": "increased"}
    ]},
    {"substance": "VLPALP", "values": [
      {"measurement": "production of NO by a cell", "setting": "[2]", "result": "capable of reducing production of NO by a cell"},
      {"measurement": "LPS-induced translocation of NFκB", "setting": "NFκB [1]", "result": "inhibition"}
    ]}
  ]
}
